According to ChEMBL document CHEMBL4229455, “Synthesis and anticancer activity of novel bisindolylhydroxymaleimide derivatives with potent GSK-3 kinase inhibition” (Bioorg Med Chem, 2018):

Columns and labels:
Format in all cases: functional
NCI/ADR-RES = assay: Cytotoxicity against human NCI-ADR-RES cells assessed as cell growth at 100 uM after 48 hrs by SRB assay relative to control; settings: read-out: Activity
K562 [1] = assay: Cytotoxicity against human K562 cells assessed as cell growth at 0.1 uM after 48 hrs by SRB assay relative to control; settings: K562, 48 h, read-out: Activity
SNB-75 = assay: Cytotoxicity against human SNB75 cells assessed as cell growth at 0.01 uM after 48 hrs by SRB assay relative to control; settings: SNB-75, 48 h, read-out: Activity
HOP-62 = assay: Cytotoxicity against human HOP62 cells assessed as cell growth at 0.1 uM after 48 hrs by SRB assay relative to control; settings: HOP-62, 48 h, read-out: Activity
CCRF-CEM [2] = assay: Cytotoxicity against human CCRF-CEM cells after 48 hrs by SRB assay
IGROV-1 [3] = assay: Cytotoxicity against human IGROV1 cells after 48 hrs by SRB assay; settings: IGROV-1, 48 h
CCRF-CEM [4] = assay: Cytotoxicity against human CCRF-CEM cells assessed as cell growth at 100 uM after 48 hrs by SRB assay relative to control; settings: read-out: Activity
HCT-15 [5] = assay: Cytotoxicity against human HCT15 cells after 48 hrs by SRB assay; settings: HCT-15, 48 h
MDA-MB-435 = assay: Cytotoxicity against human MDA-MB-435 cells assessed as cell growth at 0.01 uM after 48 hrs by SRB assay relative to control; settings: MDA-MB-435, 48 h, read-out: Activity
A498 [6] = assay: Cytotoxicity against human A498 cells assessed as cell growth at 0.1 uM after 48 hrs by SRB assay relative to control; settings: A498, 48 h, read-out: Activity
MDA-MB-231 = assay: Cytotoxicity against human MDA-MB-231 cells assessed as cell growth at 1 uM after 48 hrs by SRB assay relative to control; settings: MDA-MB-231, 48 h, read-out: Activity
ACHN = assay: Cytotoxicity against human ACHN cells assessed as cell growth at 0.01 uM after 48 hrs by SRB assay relative to control; settings: read-out: Activity
NCI-H522 = assay: Cytotoxicity against human NCI-H522 cells after 48 hrs by SRB assay; settings: NCI-H522, 48 h
SK-MEL-28 = assay: Cytotoxicity against human SK-MEL-28 cells after 48 hrs by SRB assay; settings: SK-MEL-28, 48 h
HL-60(TB) = assay: Cytotoxicity against human HL-60(TB) cells assessed as cell growth at 0.01 uM after 48 hrs by SRB assay relative to control; settings: HL-60, 48 h, read-out: Activity
OVCAR-8 = assay: Cytotoxicity against human OVCAR8 cells after 48 hrs by SRB assay; settings: OVCAR-8, 48 h
UACC-257 = assay: Cytotoxicity against human UACC257 cells assessed as cell growth at 1 uM after 48 hrs by SRB assay relative to control; settings: UACC-257, 48 h, read-out: Activity
LOX IMVI = assay: Cytotoxicity against human LOXIMVI cells assessed as cell growth at 1 uM after 48 hrs by SRB assay relative to control; settings: read-out: Activity
HCT-116 = assay: Cytotoxicity against human HCT116 cells assessed as cell growth at 100 uM after 48 hrs by SRB assay relative to control; settings: HCT-116, 48 h, read-out: Activity
IGROV-1 [7] = assay: Cytotoxicity against human IGROV1 cells assessed as cell growth at 0.1 uM after 48 hrs by SRB assay relative to control; settings: IGROV-1, 48 h, read-out: Activity
HT-29 [8] = assay: Cytotoxicity against human HT-29 cells assessed as cell growth at 0.1 uM after 48 hrs by SRB assay relative to control; settings: HT-29, 48 h, read-out: Activity
KM12 [9] = assay: Cytotoxicity against human KM12 cells assessed as cell growth at 0.01 uM after 48 hrs by SRB assay relative to control; settings: KM12, 48 h, read-out: Activity
HT-29 [10] = assay: Cytotoxicity against human HT-29 cells after 48 hrs by SRB assay; settings: HT-29, 48 h
SW-620 = assay: Cytotoxicity against human SW620 cells assessed as cell growth at 0.1 uM after 48 hrs by SRB assay relative to control; settings: SW-620, 48 h, read-out: Activity
HCT-15 [11] = assay: Cytotoxicity against human HCT15 cells assessed as cell growth at 1 uM after 48 hrs by SRB assay relative to control; settings: HCT-15, 48 h, read-out: Activity
BT-549 = assay: Cytotoxicity against human BT549 cells assessed as cell growth at 0.1 uM after 48 hrs by SRB assay relative to control; settings: BT-549, 48 h, read-out: Activity
Malme-3M = assay: Cytotoxicity against human MALME-3M cells assessed as cell growth at 0.1 uM after 48 hrs by SRB assay relative to control; settings: read-out: Activity
K562 [12] = assay: Cytotoxicity against human K562 cells assessed as cell growth at 1 uM after 48 hrs by SRB assay relative to control; settings: K562, 48 h, read-out: Activity
HT-29 [13] = assay: Cytotoxicity against human HT-29 cells assessed as cell growth at 0.01 uM after 48 hrs by SRB assay relative to control; settings: HT-29, 48 h, read-out: Activity
HT-29 [14] = assay: Cytotoxicity against human HT-29 cells assessed as cell growth at 1 uM after 48 hrs by SRB assay relative to control; settings: HT-29, 48 h, read-out: Activity
SK-OV-3 = assay: Cytotoxicity against human SKOV3 cells assessed as cell growth at 1 uM after 48 hrs by SRB assay relative to control; settings: SK-OV-3, 48 h, read-out: Activity
A498 [15] = assay: Cytotoxicity against human A498 cells assessed as cell growth at 1 uM after 48 hrs by SRB assay relative to control; settings: A498, 48 h, read-out: Activity
COLO 205 = assay: Cytotoxicity against human COLO205 cells assessed as cell growth at 0.01 uM after 48 hrs by SRB assay relative to control; settings: COLO 205, 48 h, read-out: Activity
NCI-H460 = assay: Cytotoxicity against human NCI-H460 cells assessed as cell growth at 0.1 uM after 48 hrs by SRB assay relative to control; settings: NCI-H460, 48 h, read-out: Activity
KM12 [16] = assay: Cytotoxicity against human KM12 cells after 48 hrs by SRB assay; settings: KM12, 48 h
HOP-92 = assay: Cytotoxicity against human HOP92 cells assessed as cell growth at 0.01 uM after 48 hrs by SRB assay relative to control; settings: HOP-92, 48 h, read-out: Activity

N#CCCCCCn1cc(C2=C(c3cn(CCCCCC#N)c4ccccc34)C(=O)N(O)C2=O)c2ccccc21
growth at 100 µM (NCI/ADR-RES): 24% | growth at 0.1 µM (K562 [1]): 91% | growth at 0.01 µM (SNB-75): 79% | growth at 0.1 µM (HOP-62): 85% | GI50 (CCRF-CEM [2]): 2.73 µM | LC50 (CCRF-CEM [2]): > 100 µM | TGI (CCRF-CEM [2]): > 100 µM | GI50 (IGROV-1 [3]): 5.08 µM | LC50 (concentration killing 50% of cells) (IGROV-1 [3]): > 100 µM | TGI (IGROV-1 [3]): 70.8 µM | growth at 100 µM (CCRF-CEM [4]): 3% | GI50 (HCT-15 [5]): 3.88 µM | LC50 (HCT-15 [5]): > 100 µM | TGI (HCT-15 [5]): > 100 µM | growth at 0.01 µM (MDA-MB-435): 95% | growth at 0.1 µM (A498 [6]): 82% | growth at 1 µM (MDA-MB-231): 82% | growth at 0.01 µM (ACHN): 99% | GI50 (NCI-H522): 2.59 µM | LC50 (NCI-H522): > 100 µM | TGI (NCI-H522): 10.5 µM | GI50 (SK-MEL-28): 6.07 µM | LC50 (SK-MEL-28): > 100 µM | TGI (SK-MEL-28): > 100 µM | growth at 0.01 µM (HL-60(TB)): 98% | GI50 (OVCAR-8): 12.3 µM | LC50 (OVCAR-8): > 100 µM | TGI (OVCAR-8): > 100 µM | growth at 1 µM (UACC-257): 97% | growth at 1 µM (LOX IMVI): 71% | growth at 100 µM (HCT-116): -15% | growth at 0.1 µM (IGROV-1 [7]): 101% | growth at 0.1 µM (HT-29 [8]): 103% | growth at 0.01 µM (KM12 [9]): 97% | GI50 (HT-29 [10]): 10.2 µM | LC50 (HT-29 [10]): > 100 µM | TGI (HT-29 [10]): 40.7 µM | growth at 0.1 µM (SW-620): 97% | growth at 1 µM (HCT-15 [11]): 92% | growth at 0.1 µM (BT-549): 92% | growth at 0.1 µM (Malme-3M): 94% | growth at 1 µM (K562 [12]): 94% | growth at 0.01 µM (HT-29 [13]): 100% | growth at 1 µM (HT-29 [14]): 106% | growth at 1 µM (SK-OV-3): 86% | growth at 1 µM (A498 [15]): 70% | growth at 0.01 µM (COLO 205): 99% | growth at 0.1 µM (NCI-H460): 104% | GI50 (KM12 [16]): 4.78 µM | LC50 (KM12 [16]): > 100 µM | TGI (KM12 [16]): 33.1 µM | growth at 0.01 µM (HOP-92): 97%

Cn1cc(C2=C(c3cn(C)c4ncccc34)C(=O)NC2=O)c2ccccc21
growth at 100 µM (NCI/ADR-RES): -19% | growth at 0.1 µM (K562 [1]): 102% | growth at 0.01 µM (SNB-75): 83% | growth at 0.1 µM (HOP-62): 103% | GI50 (CCRF-CEM [2]): 2.86 µM | TGI (CCRF-CEM [2]): > 100 µM | GI50 (IGROV-1 [3]): 4.1 µM | TGI (IGROV-1 [3]): 27.5 µM | growth at 100 µM (CCRF-CEM [4]): 2% | GI50 (HCT-15 [5]): 3.49 µM | TGI (HCT-15 [5]): 60.5 µM | growth at 0.01 µM (MDA-MB-435): 98% | growth at 0.1 µM (A498 [6]): 73% | growth at 1 µM (MDA-MB-231): 79% | growth at 0.01 µM (ACHN): 100% | GI50 (NCI-H522): 5.05 µM | TGI (NCI-H522): 32.4 µM | GI50 (SK-MEL-28): 3.05 µM | TGI (SK-MEL-28): 17.7 µM | growth at 0.01 µM (HL-60(TB)): 106% | GI50 (OVCAR-8): 4.23 µM | TGI (OVCAR-8): 39.9 µM | growth at 1 µM (UACC-257): 112% | growth at 1 µM (LOX IMVI): 74% | growth at 100 µM (HCT-116): -17% | growth at 0.1 µM (IGROV-1 [7]): 97% | growth at 0.1 µM (HT-29 [8]): 107% | growth at 0.01 µM (KM12 [9]): 102% | GI50 (HT-29 [10]): 3.07 µM | TGI (HT-29 [10]): 20.6 µM | growth at 0.1 µM (SW-620): 96% | growth at 1 µM (HCT-15 [11]): 84% | growth at 0.1 µM (BT-549): 98% | growth at 0.1 µM (Malme-3M): 112% | growth at 1 µM (K562 [12]): 76% | growth at 0.01 µM (HT-29 [13]): 109% | growth at 1 µM (HT-29 [14]): 93% | growth at 1 µM (SK-OV-3): 77% | growth at 1 µM (A498 [15]): 27% | growth at 0.01 µM (COLO 205): 105% | growth at 0.1 µM (NCI-H460): 97% | GI50 (KM12 [16]): 2.89 µM | TGI (KM12 [16]): 13.4 µM | growth at 0.01 µM (HOP-92): 90%
